Patent publication US20220144853A1, “IMIDAZOLINE DERIVATIVES AS CXCR4 MODULATORS” (Université de Paris, priority 2019, published 2022)
Structures can show the parent of a compound that is named as a salt.

Row | SMILES | melting point
1 | CCCCC1CN=C(SCC2=CSC3=NCCN23)N1 (stereo not drawn) (as salt: hydrochloride) [Example 30, 3-(((5-butyl-4,5-dihydro-1H-imidazol-2-yl)thio)methyl)-5,6-dihydroimidazo[2,1-b]thiazole dihydrochloride] | 176 to 178 °C
2 | C1=C(CSC2=NCCN2)N2CCCN=C2S1 (as salt: hydrochloride) [Example 26, 3-(((4,5-dihydro-1H-imidazol-2-yl)thio)methyl)-6,7-dihydro-5H-thiazolo[3,2-a]pyrimidine dihydrochloride] | > 250 °C
3 | C1=C(CSC2=NCC(Cc3ccccc3)N2)N2C(=N[C@H]3CCCCC32)S1 (mixture of isomers) (as salt: hydrochloride) [Example 55, trans-3-(((5-benzyl-4,5-dihydro-1H-imidazol-2-yl)thio)methyl)-4a,5,6,7,8,8a-hexahydrobenzo[4,5]imidazo[2,1-b]thiazole dihydrochloride] | 137 to 142 °C
4 | CC1(C)CN2C(CSC3=NCCN3)=CSC2=N1 (as salt: hydrochloride) [Example 8, 3-(((4,5-dihydro-1H-imidazol-2-yl)thio)methyl)-6,6-dimethyl-5,6-dihydroimidazo[2,1-b]thiazole dihydrochloride] | 140 to 144 °C
5 | C1=C(CSC2=NCC(Cc3ccccc3)N2)N2CCCN=C2S1 (stereo not drawn) (as salt: hydrochloride) [Example 48, 3-(((5-benzyl-4,5-dihydro-1H-imidazol-2-yl)thio)methyl)-6,7-dihydro-5H-thiazolo[3,2-a]pyrimidine dihydrochloride] | 50 to 53 °C
6 | CC1(C)CN=C(SCC2=CSC3=NC4CCCCC4CN23)N1 (stereo not drawn) (as salt: hydrochloride) [Example 43, 3-(((5,5-dimethyl-4,5-dihydro-1H-imidazol-2-yl)thio)methyl)-5a,6,7,8,9,9a-hexahydro-5H-thiazolo[2,3-b]quinazoline dihydrochloride] | 241 to 245 °C
7 | CC1(C)CN2C(CSC3=NC(C)(C)C(C)(C)N3)=CSC2=N1 (as salt: hydrochloride) [Example 16, 6,6-dimethyl-3-(((4,4,5,5-tetramethyl-4,5-dihydro-1H-imidazol-2-yl)thio)methyl)-5,6-dihydroimidazo[2,1-b]thiazole dihydrochloride] | 185 to 205 °C
8 | CC1(C)CN=C(SCC2=CSC3=NCCN23)N1 (as salt: hydrochloride) [Example 21, 3-(((5,5-dimethyl-4,5-dihydro-1H-imidazol-2-yl)thio)methyl)-5,6-dihydroimidazo[2,1-b]thiazole dihydrochloride] | 220 to 230 °C
9 | CC(C)C1CN2C(CSC3=NCC(C)(C)N3)=CSC2=N1 (stereo not drawn) (as salt: hydrochloride) [Example 52, 3-(((5,5-dimethyl-4,5-dihydro-1H-imidazol-2-yl)thio)methyl)-6-isopropyl-5,6-dihydroimidazo[2,1-b]thiazole dihydrochloride] | 227 to 232 °C
10 | C1=C(CSC2=NCCCN2)N2CCCCN=C2S1 (as salt: hydrochloride) [Example 37, 3-(((1,4,5,6-tetrahydropyrimidin-2-yl)thio)methyl)-5,6,7,8-tetrahydrothiazolo[3,2-a][1,3]diazepine dihydrochloride] | > 250 °C
11 | CC1(C)CN2C(CSC3=N[C@H]4COC[C@H]4N3)=CSC2=N1 (as salt: hydrochloride) [Example 25, (3aR,6aS)-2-(((6,6-dimethyl-5,6-dihydroinidazo[2,1-b]thiazol-3-yl)methyl)thio)-3a,4,6,6a-tetrahydro-1H-furo[3,4-d]imidazole dihydrochloride] | > 250 °C
12 | C1=C(CSC2=N[C@@H]3CCCC[C@H]3N2)N2CC(Cc3ccccc3)N=C2S1 (stereo partly drawn) (as salt: hydrochloride) [Example 61, 6-benzyl-3-((((3aR,7aR)-3a,4,5,6,7,7a-hexahydro-1H-benzo[d]imidazol-2-yl)thio)methyl)-5,6-dihydroimidazo[2,1-b]thiazole dihydrochloride] | 125 to 130 °C
13 | CC1(C)CN=C(SCC2=CSC3=NC(c4ccccc4)CN23)N1 (stereo not drawn) (as salt: hydrochloride) [Example 50, 3-(((5,5-dimethyl-4,5-dihydro-1H-imidazol-2-yl)thio)methyl)-6-phenyl-5,6-dihydroimidazo[2,1-b]thiazole dihydrochloride] | 245 to 247 °C
14 | CC1(C)CN=C(SCC2=CSC3=N[C@H]4CCCC[C@H]4N23)N1 (racemic) (as salt: hydrochloride) [Example 10, cis-3-(((4,4-dimethyl-4,5-dihydro-1H-imidazol-2-yl)thio)methyl)-4a,5,6,7,8,8a-hexahydrobenzo[4,5]imidazo[2,1-b]thiazole dihydrochloride] | 210 to 215 °C
15 | C1=C(CSC2=N[C@@H]3CCCC[C@H]3N2)N2CCCCN=C2S1 (as salt: hydrochloride) [Example 46, 3-((((3aR,7aR)-3a,4,5,6,7,7a-hexahydro-1H-benzo[d]imidazol-2-yl)thio)methyl)-5,6,7,8-tetrahydrothiazolo[3,2-a][1,3]diazepine dihydrochloride] | > 250 °C
16 | CC1(C)CN=C(SCC2=CSC3=N[C@H]4CCCC[C@@H]4N23)N1 (racemic) (as salt: hydrochloride) [Example 7, trans-3-(((4,4-dimethyl-4,5-dihydro-1H-imidazol-2-yl)thio)methyl)-4a,5,6,7,8,8a-hexahydrobenzo[4,5]imidazo[2,1-b]thiazole dihydrochloride] | 248 to 252 °C
17 | C1=C(CSC2=NCC(Cc3ccccc3)N2)N2CC(Cc3ccccc3)N=C2S1 (stereo not drawn) (as salt: hydrochloride) [Example 60, 6-benzyl-3-(((5-benzyl-4,5-dihydro-1H-imidazol-2-yl)thio)methyl)-5,6-dihydroimidazo[2,1-b]thiazole dihydrochloride] | 117 to 121 °C
18 | CC1(C)CN2C(CSC3=NCC4(CCCCC4)N3)=CSC2=N1 (as salt: hydrochloride) [Example 39, 3-(((1,3-diazaspiro[4.5]dec-2-en-2-yl)thio)methyl)-6,6-dimethyl-5,6-dihydroimidazo[2,1-b]thiazole dihydrochloride] | 225 to 231 °C
19 | CCCCC1CN=C(SCC2=CSC3=NC(C)(C)CN23)N1 (stereo not drawn) (as salt: hydrochloride) [Example 13, 3-(((5-butyl-4,5-dihydro-1H-imidazol-2-yl)thio)methyl)-6,6-dimethyl-5,6-dihydroimidazo[2,1-b]thiazole dihydrochloride] | 95 to 104 °C
20 | CC1(C)CN=C(SCC2=CSC3=NC(Cc4ccccc4)CN23)N1 (stereo not drawn) (as salt: hydrochloride) [Example 18, 6-benzyl-3-(((5,5-dimethyl-4,5-dihydro-1H-imidazol-2-yl)thio)methyl)-5,6-dihydroimidazo[2,1-b]thiazole dihydrochloride] | 63 to 74 °C
21 | CC(C)[C@@H]1N=C2SC=C(CSC3=NCC(C)(C)N3)N2[C@H]1C(C)C (racemic) (as salt: hydrochloride) [Example 62, trans-3-(((5,5-dimethyl-4,5-dihydro-1H-imidazol-2-yl)thio)methyl)-5,6-diisopropyl-5,6-dihydroimidazo[2,1-b]thiazole dihydrochloride] | 237 to 241 °C
